These results are taken from patent publication US20080241115A1, “Use Of Mesenchymal Stem Cells Genetically Modified To Express A Suicide Gene For Treating A Cancer” (Ajou University Industry-Academic Cooperation Foundation, priority 2005, published 2008).

The pIC50 is −log10 of the IC50, conventionally taken in molar units.

Experiment [1] has as its system MSC cells. The experiment in a line: Suicide effect control in MSCs, MTT assay. It counts as cell-based, human. The conditions noted are these: up to 1,000 μM 5-FC, 2 weeks. Here is the method:
(§1) MSC/CD or MSC cells were plated in growth medium at a density of 5,000 cells/well in a 6-well plate one day before exposure to 5-FC. The medium was replaced every 2 days with fresh growth medium containing 0-10 mM 5-FC for 2 weeks. […] The viability was estimated by measuring mitochondria NADPH activity using MTT assay as mentioned above with 293T/CD cells. The data are presented as averages ±S.E with respect to that of the untreated cells from 3 independent experiments (FIG. 6B).

Experiment [2] has as its system 293T cells. The experiment in a line: Suicide effect control, MTT viability assay. The settings on record: normal 293T cells, 1,000 μM 5-FC. Type of experiment: cell-based. The protocol: (§2) Normal 293T cells and 293T/CD cells transformed with pMSCV-puro/CD prepared in Step 1 were plated at a density of 2,000 cells/well in a 24-well plate containing DMEM with 10% fetal bovine serum. After 24 hours, 5-FC was added to the cells at various concentrations (0-10 mM). The media was replaced with fresh medium containing 5-FC every 2 days for 1 week. […] The viability was estimated by measuring mitochondria NADPH activity by 3-(4,5-dimethyl-thiazol-2-yl)-2,5-diphenyltetrazolium bromide (MTT) assay. The cells were incubated in 200 μl of […] MTT (Sigma, U.S.A) in PBS for 4 hours. The solution was replaced with 200 μl of absolute dimethyl sulfoxide (DMSO, Sigma). After incubated at room temperature for 15 minutes, the absorbance at 540 nm was measured with an ELISA reader (Molecular Probe, U.S.A). The data in FIG. 4B are presented as averages ±S.E. with respect to that of the cells grown in the absence of 5-FC from 3 independent experiments.
On the technique in general: Formazan colour is commonly taken as a measure of viable cells.

The test system of experiment [3] is 293T/CD cells. The experiment in a line: Suicide effect of CD gene, MTT viability assay and phase contrast microscopy. It counts as cell-based. The protocol:
as §2

In experiment [4] the test system is MSC/CD cells. Kind of experiment: Suicide effect of CD gene in MSC/CD cells, MTT assay and light microscopy. It counts as cell-based, human. Here is the method: CD-expressing retrovirus was used to deliver the CD gene into MSCs. MSCs obtained in Step 1 of Example 1 were grown in growth medium (DMEM containing 10% FBS, 100 units/ml penicillin and 100 μg/ml streptomycin) at 37° C. and 5% CO2 until 70% confluence. CD-expressing retrovirus prepared in Example 2 was added to the culture with 1:1 dilution in the growth medium in the presence of 8 μg/ml polybrene (Sigma) for 8 hours and in the fresh growth medium for 16 hours. After the retroviral transduction was repeated 2 more times, the cells were split into 1:3 in growth medium containing 4 μg/ml puromycin (Sigma) for 14 days. The survived cells were pooled, and used in the subsequent experiments.
as §1

For experiment [5], the system named is U373 glioma cells. The experiment in a line: Cytotoxic effect of 5-FU on glioma cells, MTT assay. It counts as cell-based. The settings on record: U373, 5-FU 1 week. Here is the method:
(§3) To verify that 5-FU produced by MSC/CD is sufficient to induce cell death in various glioma cells, C6 (KCLB No. 10107), U373 (KCLB No. 30017), U87 (KCLB No. 30014) cells were freshly obtained from KCLB (Korean cell line bank) and plated in 96-well plates in growth medium at a density of 100 cells/well, 100 cells/well, and 500 cells/well, respectively. After 24 hours, 5-FU was added to the cells at 0.01-100 μM. After 1 week, cell viability was estimated by MTT assay as described above.

In experiment [6] the test system is C6 glioma cells. The experiment is described as above. It counts as cell-based. The conditions noted are these: C6, 5-FU 1 week. The protocol:
as §3

Experiment [7] has as its system U87 glioma cells. The description is as above. It counts as cell-based. The conditions noted are these: U87, 5-FU 1 week. Here is the method:
as §3

pIC50: −log10 of the molar value.

As to `Nc1nc(=O)[nH]cc1F` [5-FC, 5-fluorocytosine], the cell death result in experiment [1] and in experiment [2] was “did not show cell death” each time. In addition, the “viability by phase contrast microscopy” value in experiment [3] (293T/CD cells, 1,000 μM 5-FC) is reported as “reduced”. The “concentration from which cell death was detected” value came to 10 µM in experiment [3] (293T/CD cells, 5-FC for 1 week, MTT) and 100 µM in experiment [4] (MSC/CD cells, 5-FC for 2 weeks, MTT). Also, the negative logarithm of the IC50 (pIC50) in experiment [3] (Homo sapiens, HEK-293T, 168 h, 293T/CD cells, 5-FC for 1 week, MTT, read-out: IC50 of cell death) is 3.53; in experiment [4] (Homo sapiens, 336 h, MSC/CD cells, 5-FC for 2 weeks, MTT, read-out: IC50 of cell death) it was 3.48. For the same compound, in experiment [4] (MSC/CD cells, 1,000 μM 5-FC for 2 weeks), the “cell death by light microscopy” value was “almost died”.
In the case of `O=c1[nH]cc(F)c(=O)[nH]1` [5-FU, 5-fluorouracil], the negative logarithm of the IC50 (pIC50) in experiment [5] (Homo sapiens, U373 MG, 168 h, read-out: IC50 of cell death) is 5.27; in experiment [6] (C6 glioma, 168 h, read-out: IC50 of cell death), 6.03; in experiment [7] (Homo sapiens, U-87 MG, 168 h, read-out: IC50 of cell death) it was 5.25. The “concentration at which cell death reached plateau” value in experiment [5], in experiment [6] and in experiment [7] was 10 µM each time.
